# Reference: article PMC9406419, “OATD-02 Validates the Benefits of Pharmacological Inhibition of Arginase 1 and 2 in Cancer” (Cancers, 2022)
# Tested on: CT26 tumours
# Experiment: Syngeneic CT26 model, combination with epacadostat and anti-PD-L1 antibody
# Format: in vivo, mouse
# Conditions: suboptimal doses: OATD-02 50 mg/kg PO BID; epacadostat 30 mg/kg PO BID; anti-PD-L1 2.5 mg/kg IP days 8, 10, 12, 14, 16
# Procedure: CT26 and K562 in vivo experiments were conducted at Molecure SA. All experimental procedures were approved by the 1st Local Ethics Committee in Warsaw (Poland). For the syngeneic CT26 model, 7–8-week old BALB/c females (n = 9–18 per group, BALB/cAnNCrl, Charles River Laboratories) were injected subcutaneously in the right flank with 5 × 10^5 CT26 cells. […] Anti-PD-L1 antibody (InVivoPlus anti-mouse PD-L1, clone 10F.9G2, BioXCell, lot 615416D1) was injected intraperitoneally at 2.5 mg/kg on days: 8, 10, 12, 14 and 16 post tumour cells inoculation. Control groups received vehicle (saline) or isotype antibody (InVivoPlus rat IgG2b, anti-KLH, BioXCell, lot 629816D1). For the xenograft K562 model, 7–8 week-old athymic nude mice (n = 8–11 per group, Crl:NU(NCr)-Foxn1^nu, Charles River Laboratories) or NK cell-deficient Fox Chase SCID Beige mice (n = 10–12 per group, CB17.Cg-Prkdc^scidLyst^bg-J/Crl, Charles River Laboratories) were injected subcutaneously in the right flank with 1 × 10^7 K562 cells. […] Tumour volume measured by a digital calliper (width × length × depth × π/6) was recorded three times per week. Animals were euthanized when tumours were necrotized or volume exceeded 2000 mm^3. Renca in vivo efficacy study was performed at Crown Biosciences Inc. (Taicang, China). […] Tumour volumes (length × width^2 × 0.5) were measured twice per week. […]
smiles,measurement,value
"NS(=O)(=O)NCCNc1nonc1C(=NO)Nc1ccc(F)c(Br)c1 [epacadostat, reference compound]","TGI, CT26 tumor growth inhibition - day 24",41%
